In PubChem BioAssay AID330 (DTP/NCI, 2004):
Where “and” joins values, the source holds several entries; their conditions need not be identical. Equal entries are not always repeated. Inconclusive results and toxic doses are left out.

Tested on: P388 leukemia ip, CD2F1 mice, survival T/C
Assay: NCI In Vivo Anticancer Drug Screen. Data for tumor model P388 Leukemia (intraperitoneal) in CD2F1 (CDF1) mice
Conditions: endpoint: median survival time, higher = longer survival
In short: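 Mice carrying the transplanted tumor received test compound or vehicle. Survival was recorded in each group, and the value is the treated-group measurement divided by that of the vehicle-treated control group.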

[1] = dose: 200.0 mg/kg/injection, schedule: Q01DX009 (ip), vehicle: saline with Tween-80
[2] = dose: 17.5 mg/kg/injection, schedule: Q01DX005 (ip), vehicle: Klucel (hydroxypropylcellulose) (HPC)
[3] = dose: 35.0 mg/kg/injection, schedule: Q01DX005 (ip), vehicle: Klucel (hydroxypropylcellulose) (HPC)
[4] = dose: 70.0 mg/kg/injection, schedule: Q01DX005 (ip), vehicle: Klucel (hydroxypropylcellulose) (HPC)
[5] = dose: 100.0 mg/kg/injection, schedule: Q04DX003 (ip), vehicle: Klucel (hydroxypropylcellulose) (HPC)
[6] = dose: 200.0 mg/kg/injection, schedule: Q04DX003 (ip), vehicle: Klucel (hydroxypropylcellulose) (HPC)
[7] = dose: 50.0 mg/kg/injection, schedule: Q01DX009 (ip), vehicle: Klucel (hydroxypropylcellulose) (HPC)

## CC(CO)CCC1OC2CC3C4CC=C5C=CCCC5(C)C4CCC3(C)C2C1C (stereo not given)
dose: 2.25 mg/kg/injection, schedule: Q01DX005 (ip), vehicle: Klucel (hydroxypropylcellulose) (HPC)
  T/C: 107 % of control
dose: 4.5 mg/kg/injection, schedule: Q01DX005 (ip), vehicle: Klucel (hydroxypropylcellulose) (HPC)
  T/C: 104 % of control
dose: 9.0 mg/kg/injection, schedule: Q01DX005 (ip), vehicle: Klucel (hydroxypropylcellulose) (HPC)
  T/C: 97 % of control
dose: 18.0 mg/kg/injection, schedule: Q01DX005 (ip), vehicle: Klucel (hydroxypropylcellulose) (HPC)
  T/C: 96 % of control
dose: 36.0 mg/kg/injection, schedule: Q01DX005 (ip), vehicle: Klucel (hydroxypropylcellulose) (HPC)
  T/C: 124 % of control

## O=[N+]([O-])c1ccc(C(c2ccccc2)c2ccccc2)cc1
[1]
  T/C: 90 % of control

## NCCCCC(C(=O)O)N(C(=O)OCc1ccccc1)C(=O)OCc1ccccc1 (stereo not given)
dose: 50.0 mg/kg/injection, schedule: Q01DX005 (ip), vehicle: saline with Tween-80
  T/C: 106 % of control
dose: 100.0 mg/kg/injection, schedule: Q01DX005 (ip), vehicle: saline with Tween-80
  T/C: 101 % of control
dose: 200.0 mg/kg/injection, schedule: Q01DX005 (ip), vehicle: saline with Tween-80
  T/C: 97 % of control

## CC1=CC(C)=NC(N)=NN1
dose: 25.0 mg/kg/injection, schedule: Q01DX009 (ip), vehicle: water
  T/C: 99 % of control
dose: 50.0 mg/kg/injection, schedule: Q01DX009 (ip), vehicle: water
  T/C: 108 % of control
dose: 100.0 mg/kg/injection, schedule: Q01DX009 (ip), vehicle: water
  T/C: 103 % of control
dose: 200.0 mg/kg/injection, schedule: Q01DX009 (ip), vehicle: water
  T/C: 119 % of control

## c1ccc2c(c1)ncn2Sn1cnc2ccccc21
[2]
  T/C: 102 % of control
[3]
  T/C: 118 % of control
[4]
  T/C: 104 % of control

## COc1cc(OC)c(OC)cc1/C=C\c1ccc2ccccc2[n+]1C
dose: 3.12 mg/kg/injection, schedule: Q01DX009 (ip), vehicle: saline with Tween-80
  T/C: 105 % of control
dose: 6.25 mg/kg/injection, schedule: Q01DX009 (ip), vehicle: saline with Tween-80
  T/C: 110 % of control
dose: 12.5 mg/kg/injection, schedule: Q01DX009 (ip), vehicle: saline with Tween-80
  T/C: 111 % of control and 122 % of control
dose: 25.0 mg/kg/injection, schedule: Q01DX009 (ip), vehicle: saline with Tween-80
  T/C: 123 % of control

## O=C(N/N=C/c1ccccc1Cl)c1cccnc1
dose: 60.0 mg/kg/injection, schedule: Q01DX005 (ip), vehicle: saline with Tween-80
  T/C: 90 % of control
dose: 120.0 mg/kg/injection, schedule: Q01DX005 (ip), vehicle: saline with Tween-80
  T/C: 93 % of control
dose: 240.0 mg/kg/injection, schedule: Q01DX005 (ip), vehicle: saline with Tween-80
  T/C: 89 % of control

## COc1cccc2c1C(=O)c1c(O)c3c(c(O)c1C2=O)CC(O)(/C(C)=N/NC(=O)C(=O)N/N=C(\C)C1(O)Cc2c(O)c4c(c(O)c2C(OC2CC(N)C(O)C(C)O2)C1)C(=O)c1c(OC)cccc1C4=O)CC3OC1CC(N)C(O)C(C)O1 (stereo not given)
dose: 1.56 mg/kg/injection, schedule: Q01DX009 (ip), vehicle: water
  T/C: 163 % of control and 166 % of control
dose: 3.13 mg/kg/injection, schedule: Q01DX009 (ip), vehicle: water
  T/C: 180 % of control and 182 % of control
dose: 6.25 mg/kg/injection, schedule: Q01DX009 (ip), vehicle: water
  T/C: 184 % of control and 219 % of control
dose: 12.5 mg/kg/injection, schedule: Q01DX009 (ip), vehicle: water
  T/C: 88 % of control and 94 % of control

## C/C(=N\N=c1\sc2ccccc2n1CC(=O)O)c1ccc([N+](=O)[O-])cc1
dose: 100.0 mg/kg/injection, schedule: Q01DX001 (ip), vehicle: saline with Tween-80
  T/C: 93 % of control
dose: 200.0 mg/kg/injection, schedule: Q01DX001 (ip), vehicle: saline with Tween-80
  T/C: 101 % of control

## Cc1nc2nnc(N)n2nc1C
[5]
  T/C: 106 % of control
[6]
  T/C: 97 % of control
dose: 400.0 mg/kg/injection, schedule: Q04DX003 (ip), vehicle: Klucel (hydroxypropylcellulose) (HPC)
  T/C: 96 % of control

## N=c1nc2ccc3ccccc3c2nn1-c1ccc([N+](=O)[O-])cc1
dose: 1.5 mg/kg/injection, schedule: Q01DX009 (ip), vehicle: Klucel (hydroxypropylcellulose) (HPC)
  T/C: 108 % of control
dose: 3.0 mg/kg/injection, schedule: Q01DX009 (ip), vehicle: Klucel (hydroxypropylcellulose) (HPC)
  T/C: 106 % of control
dose: 6.0 mg/kg/injection, schedule: Q01DX009 (ip), vehicle: Klucel (hydroxypropylcellulose) (HPC)
  T/C: 108 % of control
dose: 12.5 mg/kg/injection, schedule: Q01DX009 (ip), vehicle: Klucel (hydroxypropylcellulose) (HPC)
  T/C: 103 % of control
dose: 25.0 mg/kg/injection, schedule: Q01DX009 (ip), vehicle: Klucel (hydroxypropylcellulose) (HPC)
  T/C: 108 % of control
[7]
  T/C: 119 % of control

## C=C(C)[C@@H]1CC=C(C)[C@H](O)C1
dose: 50.0 mg/kg/injection, schedule: Q01DX009 (ip), vehicle: saline
  T/C: 111 % of control
dose: 100.0 mg/kg/injection, schedule: Q01DX009 (ip), vehicle: saline
  T/C: 102 % of control
dose: 200.0 mg/kg/injection, schedule: Q01DX009 (ip), vehicle: saline
  T/C: 100 % of control

## CC(C)C=C1[C@H](O)CC[C@@H]1O
dose: 100.0 mg/kg/injection, schedule: Q04DX002 (ip), vehicle: saline
  T/C: 101 % of control
dose: 200.0 mg/kg/injection, schedule: Q04DX002 (ip), vehicle: saline
  T/C: 101 % of control
dose: 400.0 mg/kg/injection, schedule: Q04DX002 (ip), vehicle: saline
  T/C: 96 % of control

## CC1=C(CO)C(=O)OC(C(C)C2CCC3C4CC5OC56C(O)C(N5CCCC5)CC(=O)C6(C)C4CCC23C)C1 (stereo not given)
dose: 8.75 mg/kg/injection, schedule: Q01DX005 (ip), vehicle: Klucel (hydroxypropylcellulose) (HPC)
  T/C: 94 % of control
[2]
  T/C: 97 % of control
[3]
  T/C: 99 % of control
[4]
  T/C: 111 % of control
dose: 140.0 mg/kg/injection, schedule: Q01DX005 (ip), vehicle: Klucel (hydroxypropylcellulose) (HPC)
  T/C: 103 % of control

## C[C@]12CC[C@H]3[C@@H](CCC4=CC(=O)CC[C@@]43C)[C@@H]1CC[C@@H]2OC(=O)Cc1ccc(N(CCCl)CCCl)cc1
dose: 100.0 mg/kg/injection, schedule: Q04DX003 (ip), vehicle: saline with Tween-80
  T/C: 112 % of control
dose: 264.0 mg/kg/injection, schedule: Q04DX003 (ip), vehicle: saline with Tween-80
  T/C: 109 % of control

## Nc1nc(N)c2nc(/C(Cl)=N/O)cnc2n1
dose: 20.0 mg/kg/injection, schedule: Q01DX009 (ip), vehicle: saline
  T/C: 108 % of control
dose: 40.0 mg/kg/injection, schedule: Q01DX009 (ip), vehicle: saline
  T/C: 105 % of control
dose: 80.0 mg/kg/injection, schedule: Q01DX009 (ip), vehicle: saline
  T/C: 103 % of control

## CCC1(O)CC(O)c2c(O)c3c(c(O)c2C1C(=O)OC)C(=O)c1cccc(O)c1C3=O (stereo not given)
dose: 60.0 mg/kg/injection, schedule: Q01DX005 (ip), vehicle: Klucel (hydroxypropylcellulose) (HPC)
  T/C: 96 % of control
dose: 120.0 mg/kg/injection, schedule: Q01DX005 (ip), vehicle: Klucel (hydroxypropylcellulose) (HPC)
  T/C: 94 % of control
dose: 240.0 mg/kg/injection, schedule: Q01DX005 (ip), vehicle: Klucel (hydroxypropylcellulose) (HPC)
  T/C: 105 % of control

## CC(=O)Sc1ccccc1C(=O)NCc1ccc(Cl)cc1
dose: 50.0 mg/kg/injection, schedule: Q01DX009 (ip), vehicle: saline with Tween-80
  T/C: 117 % of control
dose: 100.0 mg/kg/injection, schedule: Q01DX009 (ip), vehicle: saline with Tween-80
  T/C: 104 % of control
[1]
  T/C: 120 % of control

## COC(=O)NCP(=S)(CNC(=O)OC)CNC(=O)OC
[7]
  T/C: 105 % of control
dose: 100.0 mg/kg/injection, schedule: Q01DX009 (ip), vehicle: Klucel (hydroxypropylcellulose) (HPC)
  T/C: 96 % of control
dose: 200.0 mg/kg/injection, schedule: Q01DX009 (ip), vehicle: Klucel (hydroxypropylcellulose) (HPC)
  T/C: 95 % of control

## CC1=CC(=O)N2CCN=C2S1
dose: 25.0 mg/kg/injection, schedule: Q04DX003 (ip), vehicle: Klucel (hydroxypropylcellulose) (HPC)
  T/C: 101 % of control
dose: 50.0 mg/kg/injection, schedule: Q04DX003 (ip), vehicle: Klucel (hydroxypropylcellulose) (HPC)
  T/C: 101 % of control
[5]
  T/C: 111 % of control and 98 % of control
[6]
  T/C: 111 % of control

## NCC(=O)NC(CCCN=C(N)N)C(=O)O (stereo not given)
dose: 50.0 mg/kg/injection, schedule: Q01DX005 (ip), vehicle: saline
  T/C: 96 % of control
dose: 100.0 mg/kg/injection, schedule: Q01DX005 (ip), vehicle: saline
  T/C: 99 % of control
dose: 200.0 mg/kg/injection, schedule: Q01DX005 (ip), vehicle: saline
  T/C: 99 % of control
